Test results reported in ChEMBL document CHEMBL1124825 (J Med Chem, 1990).

Tests used:
Dihydrofolate reductase = biological target: T1, Dihydrofolate reductase (Mus musculus, UniProt P00375); assay: Inhibitory activity of Dihydrofolate reductase derived from L1210 cell line.; type: cell-based
T1 sequence (P00375 whole entry): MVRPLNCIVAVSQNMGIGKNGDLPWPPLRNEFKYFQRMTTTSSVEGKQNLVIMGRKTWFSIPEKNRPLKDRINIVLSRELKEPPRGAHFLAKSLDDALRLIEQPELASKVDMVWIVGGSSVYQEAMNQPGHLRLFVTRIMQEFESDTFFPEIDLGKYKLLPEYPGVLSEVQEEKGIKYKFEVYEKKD

L1210 = assay: Inhibitory activity for the growth inhibition of L1210 cell line.; type: functional, cell-based; conditions: Mus musculus
[1] = Relative influx was determined by taking the ratio vs MTX in L1210 cell line; type: functional
[2] = Inhibitory activity for Lactobacillus casei Glycinamide ribotide formyltransferase; parameters: species or system Lacticaseibacillus casei
[3] = Inhibitory activity for L1210 Glycinamide ribotide formyltransferase; parameters: species or system Mus musculus

Row | SMILES | Ki (Dihydrofolate reductase) | IC50 (L1210) | Relative influx [1] | IC50 [2] | IC50 [3]
1 | CC(Cc1cnc2nc(N)nc(N)c2c1)c1ccc(C(=O)NC(CCC(=O)O)C(=O)O)cc1 (stereo unspecified) | 0.007 nM | 23.9 nM | 1.43 | – | –
2 | CCC(Cc1cnc2nc(N)nc(N)c2c1)c1ccc(C(=O)NC(CCC(=O)O)C(=O)O)cc1 (stereo unspecified) | 0.013 nM | 12.1 nM | 1.32 | – | –
3 | CCC(CC1CNc2nc(N)nc(O)c2C1)c1ccc(C(=O)NC(CCC(=O)O)C(=O)O)cc1 (stereo unspecified) | > 1000 nM | 34.6 nM | 1.36 | 80 nM | 660 nM
4 | CC(CC1CNc2nc(N)nc(O)c2C1)c1ccc(C(=O)NC(CCC(=O)O)C(=O)O)cc1 (stereo unspecified) | > 1000 nM | 50.3 nM | 1.72 | 17 nM | 1500 nM
5 | Nc1nc(O)c2c(n1)CCC(CNc1ccc(C(=O)NC(CCC(=O)O)C(=O)O)cc1)C2 (stereo unspecified) | > 1000 nM | 57.2 nM | 1.54 | 10 nM | 500 nM
